This passage reports activity coefficient results from the NIST ThermoML archive (doi:10.1016/j.jct.2015.05.014).

The nature of this series: activity coefficient (dimensionless); of the first substance listed, at infinite dilution; xn = mol fraction of the nth substance listed. To be noted: 100 kPa, Liquid, Chromatography, x1 = 0.

Numbers after ± are expanded uncertainties.

For the molecule `CCCCCCCC` [octane] + CC(O)C(=O)[O-].CC[N+]1(C)CCCC1, the activity coefficient runs as follows: (308.15 K) 334 ± 29; (318.15 K) 307 ± 27; (328.15 K) 275 ± 24; (338.15 K) 254 ± 22; (348.15 K) 236 ± 20; (358.15 K) 217 ± 19. Moreover, the activity coefficient (368.15 K) was 200 ± 17.
Regarding `CCCC(C)=O` [pentan-2-one] + CC(O)C(=O)[O-].CC[N+]1(C)CCCC1, the activity coefficient is, setting by setting: (318.15 K) 4.7 ± 0.41; (328.15 K) 4.78 ± 0.41; (338.15 K) 4.85 ± 0.42; (348.15 K) 4.93 ± 0.43; (358.15 K) 5.01 ± 0.43; (368.15 K) 5.14 ± 0.44.
Turning to `CCC(=O)CC` [pentan-3-one] + CC(O)C(=O)[O-].CC[N+]1(C)CCCC1, the activity coefficient runs as follows: (318.15 K) 4.84 ± 0.42; (328.15 K) 4.93 ± 0.43; (338.15 K) 5.05 ± 0.44; (348.15 K) 5.14 ± 0.44; (358.15 K) 5.22 ± 0.45; (368.15 K) 5.35 ± 0.46.
As for `CCCO` [propan-1-ol] + CC(O)C(=O)[O-].CC[N+]1(C)CCCC1, the activity coefficient by setting is: (358.15 K) 0.236 ± 0.032; (368.15 K) 0.256 ± 0.033; (378.15 K) 0.277 ± 0.034; (388.15 K) 0.302 ± 0.035; (398.15 K) 0.327 ± 0.036; (408.15 K) 0.349 ± 0.037.
On to `c1ccncc1` [pyridine] + CC(O)C(=O)[O-].CC[N+]1(C)CCCC1, for which the activity coefficient was determined as 1.26 ± 0.11 (318.15 K); 1.3 ± 0.11 (328.15 K); 1.36 ± 0.11 (338.15 K); 1.41 ± 0.12 (348.15 K); 1.46 ± 0.12 (358.15 K); 1.53 ± 0.13 (368.15 K).
In the case of `C1CCOC1` [tetrahydrofuran] + CC(O)C(=O)[O-].CC[N+]1(C)CCCC1, the activity coefficient reads like this: (308.15 K) 3.51 ± 0.3; (318.15 K) 3.54 ± 0.31; (328.15 K) 3.59 ± 0.31; (338.15 K) 3.62 ± 0.31; (348.15 K) 3.68 ± 0.32; (358.15 K) 3.74 ± 0.32. Moreover, the activity coefficient (368.15 K) is 3.82 ± 0.33.
`c1ccsc1` [thiophene] + CC(O)C(=O)[O-].CC[N+]1(C)CCCC1: the activity coefficient came out at 1.29 ± 0.11 (318.15 K); 1.38 ± 0.12 (328.15 K); 1.47 ± 0.12 (338.15 K); 1.56 ± 0.13 (348.15 K); 1.64 ± 0.14 (358.15 K); 1.75 ± 0.15 (368.15 K).
Regarding `Cc1ccccc1` [toluene] + CC(O)C(=O)[O-].CC[N+]1(C)CCCC1, the activity coefficient runs as follows: (318.15 K) 5.36 ± 0.46; (328.15 K) 5.5 ± 0.47; (338.15 K) 5.62 ± 0.48; (348.15 K) 5.76 ± 0.5; (358.15 K) 5.89 ± 0.51; (368.15 K) 6.06 ± 0.52.
Take `O` [water] + CC(O)C(=O)[O-].CC[N+]1(C)CCCC1: the activity coefficient stood at 0.046 (368.15 K); 0.052 (378.15 K); 0.059 (388.15 K); 0.066 ± 0.03 (398.15 K); 0.072 ± 0.03 (408.15 K).
